Data published in a melting point compilation (Tetko et al.; mined from patent text by program, amines drawn as free bases though some values may be those of a salt).

melting point [°C]	SMILES
210 to 212	O=C(O)c1cn(C2CC2)c2c(C(F)(F)F)c(N3CCC(c4ccccn4)C3)c(F)cc2c1=O (stereo not drawn)
231	CC(C)(C)CNS(=O)(=O)c1cccc(NC(=O)c2cnn3c(C(F)(F)F)cc(-c4ccc(C(F)(F)F)cc4)nc23)c1
252 to 257	O=C(Nc1ccc(C(F)(F)F)cc1)Nc1ccc(S(=O)(=O)Nc2ccc(Cl)cc2)cc1
211 to 212	O=C1CSc2c(ccc3ccccc23)N1
88 to 90	O=C(O)C(Cc1ccc(OCCn2c(=O)sc3cc(C(=NO)C4CC4)ccc32)cc1)OCC(F)(F)F (stereo not drawn)
53 to 55	COc1c(C=O)cccc1Oc1ccccc1C
209 to 211	COc1c(-c2ccc(C=NNS(C)(=O)=O)cc2)cc(N2CCC(=O)NC2=O)cc1C(C)(C)C
178 to 179	Cc1ccc(Nc2ccccn2)c(C)c1[N+](=O)[O-]
268	CC(=O)Nc1ccc2c(c1)N1CCN=C1S2
70 to 75	CCN(Cc1ccccc1Oc1ccccc1)c1ccc(C(=O)O)nn1
167	Cc1c(CO)nc2n1CCc1ccccc1C2=C1CCN(C)CC1
219 to 220	O=C(NO)c1ccc(CNC(=O)c2[nH]c(-c3ccc(F)cc3)cc2-c2ccc(F)cc2)cc1
173 to 175	O=C(NCCO)/C(=C/c1ccc(OCC(F)(F)F)cc1)NC(=O)c1ccc(OCCC2CC2)cc1
198 to 199	O=C(Nc1cccc(-c2ccnc3c(C(=O)c4cccs4)cnn23)c1)OCCCN1CCOCC1
129 to 131	COC(=O)c1snc(-c2ccc(OC)cc2)c1N
> 250	N#Cc1c[nH]c2cc(F)c(OCc3ccccc3)cc2c1=O
200 to 201	COc1cc2c(-c3ccnc(Cl)c3)c(CO)c(CO)cc2cc1OC1CCCC1
192 to 194	Cc1ccc(-n2c(=O)n(OCc3ccccc3)c(=O)c3cc(F)c(N4CCCC4)nc32)cc1
204 to 205	CCCCC1NC(C(=O)O)Cc2c1[nH]c1ccccc21 (stereo not drawn)

melting point [°C]	SMILES
220	O=C(Nc1ccc2ccc(Cl)nc2n1)c1ccncc1
158 to 159	Cc1nn(CCC(C)O)c(-c2ccc(F)cc2)c1-c1ccc2c(c1)NC(=O)CO2 (stereo not drawn)
276 to 277	CCn1cc(C(=O)O)c(=O)c2cc(F)c(N3CCN(S(=O)(=O)c4ccc(NC(C)=O)cc4)CC3)c(F)c21
96 to 98	Cc1cc(C[C@H](N)[C@H](O)c2ccc(F)cc2)cc(OC(F)(F)C(F)F)c1 (racemic)
136 to 138	Cc1cn(C(C(=O)N(C)C)c2ccccc2)nc1-c1ccccc1 (stereo not drawn)
113 to 115	COC(=O)c1ccc2c(c1)C(c1ccccn1)CC(C)(C)O2 (stereo not drawn)
243 to 244	C=Cc1cnc2c(NC(=O)c3c(Cl)cccc3Cl)cccc2c1CO
182 to 184	Cc1nc(-c2ccccc2)sc1CNC(=O)c1ccnc(N2CCN(Cc3ccc(F)cc3)C2=O)c1
164 to 170	COc1ccc(C=C2NC(C(=O)Cc3cc(OC)c(OC)c(OC)c3)=Cc3ccccc32)cc1OC
145 to 147	O=S(=O)(c1ccc(Cl)cc1)C1(c2cnccc2Cl)CCCCC1
160 to 161	CN(Cc1ccccc1)C(=O)Cn1c(=O)n(C)c2nc(-c3ccccc3)ncc21
153 to 157	N#Cc1cnc(N)nc1-c1ccc(Cl)cc1C(=O)c1ccccc1F
86	CC(C)(C)OC(=O)Cn1cc(Cl)c(-c2cc(Cl)cc(Cl)c2)n1
195 to 196	Cc1nnc2n1-c1ccc(Cl)cc1C(c1ccccc1Cl)=NN2Cc1ccncc1
189 to 190	O=C(CC1CCCC1)c1c(-c2ccc3cc(O)ccc3c2)oc2ccccc12
198 to 199	CC(=O)NCC1CC(c2ccc(Br)cc2)=NO1 (stereo not drawn)
132 to 135	Cc1cccc(-c2n[nH]cc2-c2ccc(F)c(-c3cnn(CCO)c3)c2)n1
191 to 192	CC(=O)NC(=Cc1cccnc1)C(=O)O
196 to 198	CCOC(=O)COc1cccc2c1oc1sc(Nc3ccccc3)nc12

melting point [°C]	SMILES
134 to 135	Cc1c(C(=O)OCc2ccccc2)sc(NC(=O)c2ccccc2)c1C(=O)OC(C)(C)C
149 to 153	CCNc1nc2ccc(CCc3nc4cc(C)ccn4c3Br)cc2o1
139 to 140	CC(C)Nc1cccnc1N1CCN(C(=O)c2ccc(C(=O)NCCCO)cn2)CC1
199	O=C1OC(=O)c2cc(Oc3ccc(-c4ccccc4)cc3)ccc21
101 to 104	Nc1ccnc(CCCCCN2C(=O)c3ccccc3C2=O)n1
130 to 132	N#Cc1ccc(OCCCCOc2cccc(-c3cc4cc(C#N)ccc4o3)c2)cc1
230 to 233	COCC(=O)Nc1nc2ccc([N+](=O)[O-])cc2s1
165 to 167	COc1cc(Nc2c(C#N)cnc3cc(OCCN4CCN(C)CC4)c(OC)cc23)c(Cl)cc1Cl
130 to 133	COc1cc(Nc2nccc(-c3cccc4ccccc34)n2)cc(OC)c1OC
129 to 131	CC(C)c1ccc(C2COc3cc(O)c(O)cc3C2)cc1 (stereo not drawn)
119	COc1c(C(=O)OCc2ccccc2)nc(-c2ccc(Cl)c(OC)c2F)c(F)c1N
168 to 169	Fc1ccc(C=Nc2nc3ccc(Cl)cc3s2)cc1
93 to 94	C/C(=C\C=C(c1ccccc1)c1ccccc1)C(=O)NCCCCc1cccnc1
108 to 110	Cc1cc(Oc2ccccc2)c(NC(=O)OCc2ccccc2)c(=O)n1CC(=O)O
186 to 188	c1ccc2c(c1)CNc1c-2ccc2ccccc12
194 to 203	COCCOc1cc2c(Nc3ccc(Sc4nccn4C)c(Cl)c3)c(C#N)cnc2cc1OCCCN(C)C
166 to 167	CS(=O)(=O)c1ccc(C2=C(c3ccc(F)cc3)C(=O)OC2)cc1
156 to 157	O=c1ccn(-c2cccc(C(F)(F)F)c2)nc1-c1ccnn1-c1ccccc1
139 to 144	CCCCCCCCCCCCNC(=O)c1cc(-c2cc(Cl)cc(Cl)c2)c(OCC(=O)O)c(-c2cc(Cl)cc(Cl)c2)c1

Continued, molecule first:

SMILES	melting point [°C]
NC(=O)NC1CCC(c2ccccc2-n2nc(C(F)(F)F)cc2C(F)(F)F)CC1 (stereo not drawn)	185 to 188
Cc1cc(-c2coc3c(C(C)(C)C)cc(C)cc23)c(O)c(C(C)(C)C)c1	132 to 134
N#Cc1ccc2c(c1)C(CCC1CC1)(C(F)(F)F)c1nc[nH]c(=O)c1N2 (stereo not drawn)	> 280
COC(=O)C1CN(C(=O)[C@H](CO)NC(=O)OCc2ccccc2)C1	90 to 95
COc1ccc2c(c1)CCC1C2CCC2(C)C(O)C(C)CC12 (stereo not drawn)	100 to 102
CC(C#CCCCc1ccccc1)N(O)C(N)=O (stereo not drawn)	78 to 81
CCNc1ncnc2nc(-c3ccncc3)[nH]c12	308 to 310
COc1ccc2c(c1)C(C)CC1C2CCC2(C)C(=O)CCC12 (stereo not drawn)	108 to 109
CC(=O)OC1CCC2(C)C(CCC3C2CCC2(C)C(=O)CCC32O)C1 (stereo not drawn)	182 to 184
COc1cc(N)c(Cl)cc1C(=O)N[C@H]1CCN(C2CCC3(CC2)OCC(C)(C)CO3)C[C@H]1OC (relative stereo)	188
Nc1cc(N2CCNCC2)c(F)cc1[N+](=O)[O-]	120 to 121
O=c1c2c([nH]n1-c1cc(OCC3CCCSC3)c(Cl)cc1F)CCCC2 (stereo not drawn)	96 to 100
CC(C)(CC(=O)O)C(=O)C(=O)O	134 to 135
C=CNC(=O)n1sc(OCC)nc1=O	123
CCC(=O)c1nc(C(C)(C)C)c(O)c(C(C)(C)C)n1	123 to 125
CSc1nc(NC2CCCCC2)c2ccnc-2[nH]1	189 to 190
CC(C)(C)OC(=O)C(N)c1nc(-c2ncn3c2C2CCN2C(=O)c2cc(F)ccc2-3)no1 (stereo not drawn)	147 to 150
CCCCCCCCC(Br)C(=O)Nc1c(OC)cc(OC)cc1OC (stereo not drawn)	109 to 110
O=C(O)C(OCc1ccc(Cl)cc1)(C(F)(F)F)C(F)(F)F	98 to 99
Cc1cc(C)cc(C(=O)OCC2(N3CCN(C(=O)OC(C)(C)C)CC3)Cc3ccccc3C2)c1	139
CCOC(=O)C(=O)Nc1cc(C(F)(F)F)c(S(=O)(=O)NC(=O)C(=O)OCC)cc1[N+](=O)[O-]	175 to 180

SMILES	melting point [°C]
CC(=O)N(OC(=O)NC(C)(C)C)C(=O)NC(C)(C)C	111 to 113
CCCN(CCC)Cc1csc(-c2ncn3c2CN(C)C(=O)c2ccccc2-3)n1	111 to 112
CC1(C)NC(=S)NC1=S	144
CS(=O)(=O)Nc1cccc(N=C2NCCN2)c1	229 to 230
S=C(Nc1ccccc1)OC1CN2CCC1CC2 (stereo not drawn)	132 to 133
O=C1N=NC(=O)c2c1[nH]c1cc(Br)cc(Br)c21	> 400
O=c1oc2ccccc2cc1CCN1CCC(Nc2nc3ccccc3n2Cc2cccs2)CC1	165
C=CCN1C(=O)NC(C)CC1OCC (stereo not drawn)	72 to 76
CCOC(=O)C(=O)N(C)c1cccccc1=O	70 to 71
N#CC1=C(Nc2cccc(Cl)c2)CCC1	111 to 112
CCN(CC)CCNC(=O)c1cc(Cl)c(N)cc1OCCN	97 to 99
CCCCCCCCc1cccc(CCC(N)(CO)CO)c1	89 to 92
C=C1CCC2C3CCC4CC(OC(C)=O)CCC4(C)C3C(=O)CC12C (stereo not drawn)	140 to 141
O=C(C=Cc1ccc(O)c(OC(F)(F)F)c1)C(CCOCCO)C(=O)C=Cc1ccc(O)c(OC(F)(F)F)c1 (stereo not drawn)	112 to 114
CC#CCCn1ncc2c(OCC)c(C(=O)OCC)c(C)nc21	94 to 95
N#CC(c1ccccc1)(c1ccccc1)C1CCN(C(=O)Oc2ccccc2)C1 (stereo not drawn)	154 to 155
COc1ccc2c(c1)N1CCOCC1C[N+]([O-])=C2c1ccco1 (stereo not drawn)	183 to 186
CCNc1nc(C(F)(F)F)nc(NCC)c1[N+](=O)[O-]	60 to 65
Cc1c(-c2cn(C)c(=O)c(Nc3ccc(C4C(=O)N(C)CCN4C(=O)OC(C)(C)C)cc3)n2)cccc1N1Cc2cc(C(C)(C)C)sc2C1=O (stereo not drawn)	120 to 123
COc1ccc2cc([C@H](C)C(=O)OCC(=O)N(C)CC(=O)OCCCO[N+](=O)[O-])ccc2c1	41 to 43
